Data: US20130005811A1, “ANTIMICROBIAL TREATMENT FOR SEEDS AND SPROUTS” (priority 2010, published 2013)
Marks after values point to notes of the source that are not given here.

Tests used:
E. coli O157:H7 [1] = experiment: Inactivation of E. coli O157:H7 on alfalfa seeds inoculated with 10^8 CFU/g; assay type: cell-based, Escherichia coli O157:H7
Method: (§1) Five isolates of Escherichia coli O157:H7, including strain 932 (human isolate), E009 (beef isolate), E0018 (cattle isolate), E0122 (cattle isolate), E0139 (deer jerky isolate); and five isolates of Salmonella typhimurium DT104, including strain H2662 (cattle isolate), 11942A (cattle isolate), 13068A (cattle isolate), 152N17-1 (dairy isolate) and H3279 (human isolate) were used. Nalidixic acid-resistant (50 μg/ml) E. coli O157:H7 were used to facilitate enumeration. Each E. coli O157:H7 and Salmonella strain was grown in tryptic soy broth (TSB, Beckon Dickinson, Sparks, Md.) at 37° C. for 18 hr. Approximately equal cell numbers of each of the five strains were combined and used as a 5-strain mixture with cell numbers being adjusted by spectrophotometric (Spectronic Instruments, Rochester, N.Y.) determination as described in Zhao et al., (2009) J. Food Prot. 72: 928-936, incorporated herein by reference in its entirety. Bacterial cell numbers were confirmed by plating 0.1 ml of serial dilutions (1:10) in 0.1% peptone on tryptic soy agar (TSA, Beckon Dickinson) and Sorbitol MacConkey agar (SMA, Oxoid, Hampshire, UK) for E. coli O157:H7, and TSA and XLD agar (Beckon Dickinson) for Salmonella and incubating all plates at 37° C. for 24 hr, after which colonies were counted.
(§2) Levulinic acid (0.5%) and 0.05% sodium dodecyl sulfate (SDS) obtained from Sigma-Aldrich (St. Louis, Mo.) were tested in combination at 21±2° C. for their antimicrobial activity to E. coli O157:H7 and S. typhimurium on alfalfa seeds as a wash treatment. Calcium hypochlorite (Arch Chemicals, Smyrna, Ga.) at 20,000 μg/ml (ppm) was used as the positive control, and deionized water was used as the negative control.
(§3) Before each trial, 25 ml of sterile tap water and 25 g of alfalfa seeds were added to a WHIRL-PAK® bag (Nasco, Fort Atkinson, Wis.) and pummeled in a stomacher blender at 150 rpm for 1 min. Duplicate 0.1 ml portions of the contents were plated on SMA, XLD, and TSA plates to detect E. coli O157:H7 and Salmonella, and enumerate aerobic bacteria counts according to the protocols described below. Only E. coli O157:H7-negative and Salmonella-negative alfalfa seeds were used. Dry seeds (50 g) were individually placed in a sterilized glass beaker (1 L) and 5 ml of a mixture of E. coli O157:H7 or S. typhimurium DT 104 (high inocula at 10^8-10^9 CFU/ml and low inocula at 10^3-10^4 CFU/ml) was inoculated on the surface of the seeds in each glass beaker under a laminar flow hood. A sterile plastic spoon was used to mix for 2 min the seeds with bacterial suspension. The glass beakers were held in a laminar flow hood for 1 hr, 4 hr, 24 hr, 48 hr, and 72 hr with intermittent mixing by plastic spoon before use for chemical treatment.
(§4) Inactivation of E. coli O157:H7 and Salmonella on Alfalfa Seeds: Inoculated, dried alfalfa seeds (50 g samples) were placed in a 1000 ml glass beaker containing 200 ml of treatment solution and agitated by a magnetic stir bar at 150 ppm at 21° C. for 0, 1, 2, 5, 10, 20, 30, and 60 min. Following treatment, 25 g of seeds was placed in a stomacher bag containing 25 ml 0.1M phosphate buffer, pH 7.2 (PBS) for levulinic acid plus SDS-treated seeds or neutralizing buffer (50×) for calcium hypochlorite-treated seeds and pummeled for 1 min. at 150 rpm in a stomacher blender (Seward, Ltd., Worthing, England). The suspension was serially (1:10) diluted in 0.1% peptone water and 0.1 ml of each dilution was surface-plated in duplicate onto TSA and Sorbitol MacConkey agar containing 50 μg nalidixic acid/ml (TSA-NA and SMA-NA) for E. coli O157:H7, and on TSA and XLD containing ampicillin (32 μg/ml), tetracycline (16 μg/ml) and streptomycin (64 μg/ml) (TSA+ and XLD+) for S. typhimurium DT 104. All plates were incubated at 37° C. for 48 hr.

S. typhimurium DT 104 = experiment: Inactivation of S. typhimurium DT 104 on alfalfa seeds inoculated with 10^8 CFU/g; assay type: cell-based, Salmonella typhimurium DT104
Method: as §1, §2, §3, §4

E. coli O157:H7 [2] = experiment: E. coli O157:H7 on alfalfa seeds with an initial inoculum of 10^4 CFU/g; assay type: cell-based, Escherichia coli O157:H7
[3] = dried for 4 hr, treated for 0 min (actual time 0 delayed by 20 to 30 seconds)
[4] = dried for 4 hr, treated for 1 min
[5] = dried for 4 hr, treated for 2 min
[6] = dried for 4 hr, treated for 5 min
[7] = dried for 4 hr, treated for 10 min
[8] = dried for 4 hr, treated for 20 min
[9] = dried for 4 hr, treated for 30 min
[10] = dried for 4 hr, treated for 60 min
[11] = dried for 24 hr, treated for 0 min
[12] = dried for 24 hr, treated for 1 min
[13] = dried for 24 hr, treated for 2 min
[14] = dried for 24 hr, treated for 5 min
[15] = dried for 24 hr, treated for 10 min
[16] = dried for 24 hr, treated for 20 min
[17] = dried for 24 hr, treated for 30 min
[18] = dried for 24 hr, treated for 60 min
[19] = dried for 48 hr, treated for 0 min
[20] = dried for 48 hr, treated for 1 min
[21] = dried for 48 hr, treated for 2 min
[22] = dried for 48 hr, treated for 5 min
[23] = dried for 48 hr, treated for 10 min
[24] = dried for 48 hr, treated for 20 min
[25] = dried for 48 hr, treated for 30 min
[26] = dried for 48 hr, treated for 60 min
[27] = dried for 72 hr, treated for 0 min
[28] = dried for 72 hr, treated for 1 min
[29] = dried for 72 hr, treated for 2 min
[30] = dried for 72 hr, treated for 5 min
[31] = dried for 72 hr, treated for 10 min
[32] = dried for 72 hr, treated for 20 min
[33] = dried for 72 hr, treated for 30 min
[34] = dried for 72 hr, treated for 60 min
[35] = dried at 21° C. for 2 hr, treated for 20 min (10 min in beaker and 10 min in a stomacher bag) at 21° C.

[Ca+2].[O-]Cl.[O-]Cl [20,000 ppm, Ca(OCl)2, pH 11.4, Calcium hypochlorite]
E. coli O157:H7 counts on seeds (E. coli O157:H7 [1]; [3]): +^b (below the minimum detection level by direct plating (<0.7 log CFU/ml), but positive by enrichment culture)
E. coli O157:H7 counts on seeds (E. coli O157:H7 [1]; [4]): + (below the minimum detection level by direct plating (<0.7 log CFU/ml), but positive by enrichment culture)
E. coli O157:H7 counts on seeds (E. coli O157:H7 [1]; [5]): −^c
E. coli O157:H7 counts on seeds (E. coli O157:H7 [1]; [6]): + (below the minimum detection level by direct plating (<0.7 log CFU/ml), but positive by enrichment culture)
E. coli O157:H7 counts on seeds (E. coli O157:H7 [1]; [7]): 1.7 CFU/g
E. coli O157:H7 counts on seeds (E. coli O157:H7 [1]; [8]): 2.0 CFU/g
E. coli O157:H7 counts on seeds (E. coli O157:H7 [1]; [9]): 1.7 CFU/g
E. coli O157:H7 counts on seeds (E. coli O157:H7 [1]; [10]): + (below the minimum detection level by direct plating (<0.7 log CFU/ml), but positive by enrichment culture)
E. coli O157:H7 counts on seeds (E. coli O157:H7 [1]; [11]): + (below the minimum detection level by direct plating (<0.7 log CFU/ml), but positive by enrichment culture)
E. coli O157:H7 counts on seeds (E. coli O157:H7 [1]; [12]): −
E. coli O157:H7 counts on seeds (E. coli O157:H7 [1]; [13]): −
E. coli O157:H7 counts on seeds (E. coli O157:H7 [1]; [14]): −
E. coli O157:H7 counts on seeds (E. coli O157:H7 [1]; [15]): + (below the minimum detection level by direct plating (<0.7 log CFU/ml), but positive by enrichment culture)
E. coli O157:H7 counts on seeds (E. coli O157:H7 [1]; [16]): −
E. coli O157:H7 counts on seeds (E. coli O157:H7 [1]; [17]): −
E. coli O157:H7 counts on seeds (E. coli O157:H7 [1]; [18]): + (below the minimum detection level by direct plating (<0.7 log CFU/ml), but positive by enrichment culture)
E. coli O157:H7 counts on seeds (E. coli O157:H7 [1]; [19]): + (below the minimum detection level by direct plating (<0.7 log CFU/ml), but positive by enrichment culture)
E. coli O157:H7 counts on seeds (E. coli O157:H7 [1]; [20]): −
E. coli O157:H7 counts on seeds (E. coli O157:H7 [1]; [21]): + (below the minimum detection level by direct plating (<0.7 log CFU/ml), but positive by enrichment culture)
E. coli O157:H7 counts on seeds (E. coli O157:H7 [1]; [22]): −
E. coli O157:H7 counts on seeds (E. coli O157:H7 [1]; [23]): −
E. coli O157:H7 counts on seeds (E. coli O157:H7 [1]; [24]): −
E. coli O157:H7 counts on seeds (E. coli O157:H7 [1]; [25]): −
E. coli O157:H7 counts on seeds (E. coli O157:H7 [1]; [26]): −
E. coli O157:H7 counts on seeds (E. coli O157:H7 [1]; [27]): + (below the minimum detection level by direct plating (<0.7 log CFU/ml), but positive by enrichment culture)
E. coli O157:H7 counts on seeds (E. coli O157:H7 [1]; [28]): + (below the minimum detection level by direct plating (<0.7 log CFU/ml), but positive by enrichment culture)
E. coli O157:H7 counts on seeds (E. coli O157:H7 [1]; [29]): + (below the minimum detection level by direct plating (<0.7 log CFU/ml), but positive by enrichment culture)
E. coli O157:H7 counts on seeds (E. coli O157:H7 [1]; [30]): −
E. coli O157:H7 counts on seeds (E. coli O157:H7 [1]; [31]): + (below the minimum detection level by direct plating (<0.7 log CFU/ml), but positive by enrichment culture)
E. coli O157:H7 counts on seeds (E. coli O157:H7 [1]; [32]): + (below the minimum detection level by direct plating (<0.7 log CFU/ml), but positive by enrichment culture)
E. coli O157:H7 counts on seeds (E. coli O157:H7 [1]; [33]): −
E. coli O157:H7 counts on seeds (E. coli O157:H7 [1]; [34]): −
Reduction of E. coli O157:H7 population (E. coli O157:H7 [1]; seeds dried for 4 hr, treated for up to 60 min): greater than 6 log CFU/g
E. coli O157:H7 detection after treatment (E. coli O157:H7 [1]; seeds dried for 24 hr, treated for 5 min): only detectable on seeds by selective enrichment culture
S. typhimurium DT 104 counts in seeds (S. typhimurium DT 104; [3]): +^b (below the minimum detection level by direct plating (<0.7 log CFU/ml), but positive by enrichment culture.)
S. typhimurium DT 104 counts in seeds (S. typhimurium DT 104; [4]): −^c
S. typhimurium DT 104 counts in seeds (S. typhimurium DT 104; [5]): −
S. typhimurium DT 104 counts in seeds (S. typhimurium DT 104; [6]): −
S. typhimurium DT 104 counts in seeds (S. typhimurium DT 104; [7]): −
S. typhimurium DT 104 counts in seeds (S. typhimurium DT 104; [8]): −
S. typhimurium DT 104 counts in seeds (S. typhimurium DT 104; [9]): −
S. typhimurium DT 104 counts in seeds (S. typhimurium DT 104; [10]): −
S. typhimurium DT 104 counts in seeds (S. typhimurium DT 104; [11]): + (below the minimum detection level by direct plating (<0.7 log CFU/ml), but positive by enrichment culture.)
S. typhimurium DT 104 counts in seeds (S. typhimurium DT 104; [12]): + (below the minimum detection level by direct plating (<0.7 log CFU/ml), but positive by enrichment culture.)
S. typhimurium DT 104 counts in seeds (S. typhimurium DT 104; [13]): −
S. typhimurium DT 104 counts in seeds (S. typhimurium DT 104; [14]): −
S. typhimurium DT 104 counts in seeds (S. typhimurium DT 104; [15]): −
S. typhimurium DT 104 counts in seeds (S. typhimurium DT 104; [16]): −
S. typhimurium DT 104 counts in seeds (S. typhimurium DT 104; [17]): −
S. typhimurium DT 104 counts in seeds (S. typhimurium DT 104; [18]): −
S. typhimurium DT 104 counts in seeds (S. typhimurium DT 104; [19]): + (below the minimum detection level by direct plating (<0.7 log CFU/ml), but positive by enrichment culture.)
S. typhimurium DT 104 counts in seeds (S. typhimurium DT 104; [20]): + (below the minimum detection level by direct plating (<0.7 log CFU/ml), but positive by enrichment culture.)
S. typhimurium DT 104 counts in seeds (S. typhimurium DT 104; [21]): −
S. typhimurium DT 104 counts in seeds (S. typhimurium DT 104; [22]): −
S. typhimurium DT 104 counts in seeds (S. typhimurium DT 104; [23]): + (below the minimum detection level by direct plating (<0.7 log CFU/ml), but positive by enrichment culture.)
S. typhimurium DT 104 counts in seeds (S. typhimurium DT 104; [24]): −
S. typhimurium DT 104 counts in seeds (S. typhimurium DT 104; [25]): −
S. typhimurium DT 104 counts in seeds (S. typhimurium DT 104; [26]): −
S. typhimurium DT 104 counts in seeds (S. typhimurium DT 104; [27]): −
S. typhimurium DT 104 counts in seeds (S. typhimurium DT 104; [28]): −
S. typhimurium DT 104 counts in seeds (S. typhimurium DT 104; [29]): −
S. typhimurium DT 104 counts in seeds (S. typhimurium DT 104; [30]): −
S. typhimurium DT 104 counts in seeds (S. typhimurium DT 104; [31]): −
S. typhimurium DT 104 counts in seeds (S. typhimurium DT 104; [32]): + (below the minimum detection level by direct plating (<0.7 log CFU/ml), but positive by enrichment culture.)
S. typhimurium DT 104 counts in seeds (S. typhimurium DT 104; [33]): + (below the minimum detection level by direct plating (<0.7 log CFU/ml), but positive by enrichment culture.)
S. typhimurium DT 104 counts in seeds (S. typhimurium DT 104; [34]): −
Salmonella detection after treatment (S. typhimurium DT 104; seeds dried for 4 hr, after 5 min of treatment): no detectable Salmonella
Salmonella detection after treatment (S. typhimurium DT 104; seeds dried for 24 hr, 48 hr, or 72 hr, treated for 5 min): levels only detectable by selective enrichment culture
E. coli O157:H7 on treated seeds by direct plating method (E. coli O157:H7 [2]; 10 min in glass beaker then pummeled 10 min in stomacher bag): negative
E. coli O157:H7 count in sample No. 1-10 (seeds) (E. coli O157:H7 [2]; [35]): −
E. coli O157:H7 count in sample No. 1-10 (treated supernatant) (E. coli O157:H7 [2]; [35]): −
E. coli O157:H7 in solutions used for treatment (E. coli O157:H7 [2]; enrichment culture after use): negative
E. coli O157:H7 detection in samples treated for 10 min (E. coli O157:H7 [2]; none pathogen-positive by direct plating): sporadically positive by enrichment culture assay
